From patent US12528790B2, “Amide derivative having antiviral activity” (Shionogi & Co., Ltd., priority 2020, dated 2026) come the findings set out here.

One assay relates to RSV A2 strain. Description: In vitro CPE (CytoPathic Effect) inhibition effect evaluation test, RSV type A. In kind it is cell-based. The note with it: human respiratory syncytial virus; inhibitory effect against RSV type A (RSV A2 strain), HEp-2 cells, CPE inhibition; read-out: EC50. The procedure, abridged:
(§1)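 HEp-2 cells (2.4×10^5 cells/mL, 2% FBS E-MEM) were infected with RSV alongside 3-fold compound dilutions and incubated at 37 °C, 4 days for A2 and 5 days for B Wash/18537. Viable cells quantified by CellTiter-Glo 2.0 luminescence; EC50 by nonlinear regression as 50% CPE inhibition.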

The test system of assay [1] is RSV B (Wash/18537 strain). Description: In vitro CPE (CytoPathic Effect) inhibition effect evaluation test, RSV type B. In kind it is cell-based. The note with it: human respiratory syncytial virus, inhibitory effect against RSV type B, CPE inhibition; read-out: EC50. In short, it runs like this:
as §1

As to `Cc1nnc(N2CCC(Oc3ccc4c(c3)C3(CCCCC3)CN4c3ncc(C(=O)NC4(C(=O)O)C5CC6CC(C5)CC4C6)c(C(F)(F)F)n3)CC2)o1` (centres unmarked) [Compound I-534], the 50% effective concentration (EC50) (in the assay with RSV A2 strain; in assay [1]) was under 10 nM throughout.
Turning to `O=C(NC1(C(=O)O)C2CC3CC(C2)CC1C3)c1cnc(-c2cn(C3CCC(F)(F)CC3)c3cc(OC4CC5(C4)CN(c4ncc(F)cn4)C5)ccc23)nc1C(F)(F)F` (centres unmarked) [Compound I-407], the EC50 in the assay with RSV A2 strain is under 10 nM; in assay [1] it was 100 to 5000 nM.
On the same counts, the results for `O=C(NC1(C(=O)O)C2CC3CC(C2)CC1C3)c1cnc(-c2cn(C3CCC(F)(F)CC3)c3cc(OC4CCN(c5ncccn5)CC4)ccc23)nc1C(F)(F)F` (centres unmarked) [Compound I-239] are under 10 nM and under 10 nM.
For `CC(F)(F)c1nc(N2CC3(CCCCC3)c3cc(O[C@H]4CC[C@H](N5CC(F)(F)C5)CC4)ncc32)ncc1C(=O)N[C@]1(C(=O)O)[C@@H]2CC3C[C@H]1C[C@@](F)(C3)C2` [Compound I-556] the same measures were under 10 nM and 10 to 100 nM.
As for `O=C(NC1(C(=O)O)CCCCC1)c1cnc(N2CCc3cc(OC4CCN(c5ncccn5)CC4)ccc32)nc1C(F)(F)F` [Compound I-36], the EC50 was under 10 nM in the assay with RSV A2 strain and 10 to 100 nM in assay [1].
On the same counts, the results for `CC(F)(F)c1nc(N2CC3(CCCCC3)c3cc(OC4CCC5(CC4)CN(CC(F)(F)F)C5)ccc32)ncc1C(=O)NC1(C(=O)O)C2CC3CC(C2)CC1C3` (centres unmarked) [Compound I-550] are under 10 nM and 10 to 100 nM.
Take `CN(C)CCCc1nc(N2CC3(CCOCC3)c3cc(OC4CCN(c5ncccn5)CC4)ccc32)nc(C(F)(F)F)c1C(=O)NC1(C(=O)O)C2CC3CC(C2)CC1C3` (centres unmarked) [Compound I-183]: the figures for the EC50 (in the assay on RSV A2 strain; in assay [1]) were under 10 nM and 10 to 100 nM, respectively.
With `O=C(NC1(C(=O)O)C2CC3CC(C2)CC1C3)c1cnc(N2CC3(CCCCC3)c3cc(OC4CCN(C5CSC5)CC4)ccc32)nc1C(F)(F)F` (centres unmarked) [Compound I-485], the EC50 is under 10 nM in the assay on RSV A2 strain and 10 to 100 nM in assay [1].
For `O=C(NC1(C(=O)O)C2CC3CC(C2)CC1C3)c1cnc(-c2cn(C3CCC(F)(F)CC3)c3cc(OC4CCN(CC5(F)COC5)CC4)ccc23)nc1C(F)(F)F` (centres unmarked) [Compound I-429] the same measures were under 10 nM and 10 to 100 nM.
For `O=C(NC1(C(=O)O)C2CC3CC(C2)CC1C3)c1cnc(-c2cn(C3CC3)c3cc(O[C@H]4CC[C@@H](N5CC(F)(F)C5)CC4)ccc23)nc1C(F)(F)F` (some centres unmarked) [Compound I-543], the EC50 (in the assay with RSV A2 strain; in assay [1]) was under 10 nM in each case.
As for `O=C(NC1(C(=O)O)C2CC3CC(C2)CC1C3)c1ccc(-c2cn(C3CC4C=CC(C3)O4)c3cc(OC4CCN(c5ncc(F)cn5)CC4)ccc23)nc1C(F)(F)F` (single isomer, unassigned) [Compound I-434], the EC50 (with RSV A2 strain; in assay [1]) was under 10 nM throughout.
For `O=C(NC1(C(=O)O)C2CC3CC(C2)CC1C3)c1ccc(-c2cn(C3CCC(F)(F)CC3)c3cc(O[C@H]4CC[C@@H](N5CC(F)(F)C5)CC4)ccc23)nc1C(F)(F)F` (some centres unmarked) [Compound I-514], the EC50 in the assay with RSV A2 strain is under 10 nM; in assay [1] it was 10 to 100 nM.
Regarding `O=C(NC1(C(=O)O)C2CC3CC(C2)CC1C3)c1cnc(N2CC3(CCCCC3)c3cc(O[C@H]4CC[C@H](n5cncn5)CC4)ccc32)nc1C(F)(F)F` (some centres unmarked) [Compound I-501], the EC50 (with RSV A2 strain; in assay [1]) was under 10 nM throughout.
Regarding `O=C(NC1(C(=O)O)C2CC3CC(C2)CC1C3)c1cnc(-c2cn(C3CCC(F)(F)CC3)c3cc(OC4CC5(C4)CN(CC(F)(F)F)C5)ccc23)nc1C(F)(F)F` (centres unmarked) [Compound I-406], the concentration for a half-maximal effect (EC50) was under 10 nM in the assay with RSV A2 strain and 10 to 100 nM in assay [1].
Regarding `CCC1(CC)CN(c2ncc(C(=O)NC3(C(=O)O)C4CC5CC(C4)CC3C5)c(C(C)(F)F)n2)c2ccc(OC3CCN(CC(F)(F)F)CC3)cc21` (centres unmarked) [Compound I-589], the EC50 (in the assay with RSV A2 strain; in assay [1]) was under 10 nM throughout.
With `CC(F)(F)c1nc(N2CC3(CC3)c3cc(OC4CCN(CC(F)(F)F)CC4)ccc32)ncc1C(=O)NC1(C(=O)O)C2CC3CC(C2)CC1C3` (centres unmarked) [Compound I-604], the EC50 (in the assay on RSV A2 strain; in assay [1]) was under 10 nM each time.
